In US20100111888A1, “Organic Compounds and Compositions Having the Ability to Modulate Fragrance Compositions” (GIVAUDAN SA, priority 2007, published 2010):

Molecular target: T1, CYP2A13 (Homo sapiens, UniProt Q16696)
T1 construct: made in house; host or cells: Sf9 insect cells, recombinant baculovirus
T1 sequence (Q16696 1-494): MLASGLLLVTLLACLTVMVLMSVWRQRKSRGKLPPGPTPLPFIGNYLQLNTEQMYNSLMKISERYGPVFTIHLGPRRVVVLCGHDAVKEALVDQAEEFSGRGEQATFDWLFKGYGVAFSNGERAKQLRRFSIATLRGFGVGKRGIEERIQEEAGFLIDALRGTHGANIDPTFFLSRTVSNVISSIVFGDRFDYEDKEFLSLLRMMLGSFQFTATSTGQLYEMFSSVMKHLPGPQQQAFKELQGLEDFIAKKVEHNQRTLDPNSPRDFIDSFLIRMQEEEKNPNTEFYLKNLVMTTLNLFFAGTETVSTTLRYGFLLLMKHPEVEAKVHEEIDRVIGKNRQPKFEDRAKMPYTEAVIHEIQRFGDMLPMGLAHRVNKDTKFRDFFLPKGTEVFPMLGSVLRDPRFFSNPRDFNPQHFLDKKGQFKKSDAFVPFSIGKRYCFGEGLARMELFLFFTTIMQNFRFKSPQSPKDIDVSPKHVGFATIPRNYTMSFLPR
Assay: Evaluation of test compounds as inhibitors of CYP2A13 (coumarin to Umbelliferone, fluorescence)
Type: biochemical
Conditions: substrate coumarin 0.006 mM; microsomes with 7 pmoles CYP2A13; 60 min at 37° C.; read-out: CYP2A13 inhibitor activity IC50
Description: P450 reductase is commercially available (BD Biosciences Gentest, USA).
Microsomes were used which contained 7 pmoles CYP2A13.

Row | SMILES | IC50 [nM]
1 | CCCCC/C(=C\C(C)(C)C)C(=O)O [Compound ID 54, (E)-2-(2,2-dimethylpropylidene)heptanoic acid] | 2600
2 | CCCCC/C(=C\c1ccc2c(c1)OCO2)C(C)=O [Compound ID 39, (E)-3-(benzo[d][1,3]dioxol-5-ylmethylene)octan-2-one] | 2000
3 | CCCCCC(CC1CC1)C(C)=O (stereo not shown) [Compound ID 50, 3-(cyclopropylmethyl)octan-2-one] | 1300
4 | CCC/C(=C\c1ccc(OC)cc1)C(C)=O [Compound ID 38, (E)-3-(4-methoxybenzylidene)hexan-2-one] | 2000
5 | CCCCC/C(=C/c1ccc(C(=O)OC)cc1)C(C)=O [Compound ID 41, (Z)-methyl 4-(2-acetylhept-1-enyl)benzoate] | 47200
6 | CCCCC/C(=C\C1CC1)C(=O)OC [Compound ID 46, (E)-methyl 2-(cyclopropylmethylene)heptanoate] | 2300
7 | CCCCCC/C(=C\c1ccccc1)C(C)=O [Compound ID 6, (E)-3-benzylidenenonan-2-one] | 3000
8 | CCCCC/C(=C\CC1(C)OCCO1)C(C)=O [Compound ID 12, (E)-3-(2-(2-methyl-1,3-dioxolan-2-yl)ethylidene)octan-2-one] | 3200
9 | CCCC/C(=C\C1CCOC1)C(C)=O (stereo not shown) [Compound ID 10, (E)-3-((tetrahydrofuran-3-yl)methylene)heptan-2-one] | 15500
10 | CCCCC/C(C(C)=O)=C(/C)c1ccccc1 [Compound ID 51, (E)-3-(1-phenylethylidene)octan-2-one] | 2500
11 | CCCCCC/C(=C\C1CC1)C(=O)/C=C/C1CC1 [Compound ID 13, (1E,4E)-1-cyclopropyl-4-(cyclopropylmethylene)dec-1-en-3-one] | 9700
12 | CCCCC/C(=C\C(OC)OC)C(C)=O [Compound ID 11, (E)-3-(2,2-dimethoxyethylidene)octan-2-one] | 1600
13 | CCCCCC(CC1CC1)C(=O)OC (stereo not shown) [Compound ID 48, methyl 2-(cyclopropylmethyl)heptanoate] | 8700
14 | CCCCCC1(C(=O)OC)CCCC1 [Compound ID 14, methyl 1-pentylcyclopentanecarboxylate] | 2100
15 | CCCCC/C(=C\C1CC1)C(=O)c1ccccc1 [Compound ID 52, (E)-2-(cyclopropylmethylene)-1-phenylheptan-1-one] | 6600
16 | CCCCC/C(=C\C(C)(C)C)C(=O)OC [Compound ID 53, (E)-methyl 2-(2,2-dimethylpropylidene)heptanoate] | 1900
17 | CCCCCC(Cc1ccccc1)C(=O)OC (stereo not shown) [Compound ID 49, methyl 2-benzylheptanoate] | 4400
18 | CCCC/C(=C\c1ccc(OC)cc1)C(C)=O [Compound ID 37, (E)-3-(4-methoxybenzylidene)heptan-2-one] | 1400
19 | CCCCC/C(=C\c1ccc(C#N)cc1)C(C)=O [Compound ID 7, (E)-4-(2-acetylhept-1-enyl)benzonitrile] | 2000
20 | CCCCC/C(=C\c1cccs1)C(C)=O [Compound ID 9, (E)-3-(thiophen-2-ylmethylene)octan-2-one] | 5300
21 | CCCCC/C(=C\c1ccc2ccccc2c1)C(C)=O [Compound ID 8, (E)-3-(naphthalen-2-ylmethylene)octan-2-one] | 16300
22 | CCCCC/C(=C/c1cc(F)cc(F)c1)C(C)=O [Compound ID 26, (Z)-3-(3,5-difluorobenzylidene)octan-2-one] | 14300

Stronger by IC50, values ahead:

Row | IC50 [nM] | SMILES
23 | 1100 | CCCCC/C(=C\c1ccc(C(=O)OC)cc1)C(C)=O [Compound ID 40, (E)-methyl 4-(2-acetylhept-1-enyl)benzoate]
24 | 1000 | CCC/C(=C\c1ccccc1)C(C)=O [Compound ID 32, (E)-3-benzylidenehexan-2-one]
25 | 700 | CCCCCC1(C(C)=O)CCCC1 [Compound ID 15, 1-(1-pentylcyclopentyl)ethanone]
26 | 700 | CCCCC/C(=C\c1c(F)c(F)c(F)c(F)c1F)C(C)=O [Compound ID 27, (E)-3-(perfluorobenzylidene)octan-2-one]
27 | 600 | CCCCC/C(=C\c1cc(F)cc(F)c1)C(C)=O [Compound ID 25, (E)-3-(3,5-difluorobenzylidene)octan-2-one]
28 | 600 | CCCC/C(=C\c1ccccc1)C(C)=O [Compound ID 33, (E)-3-benzylideneheptan-2-one]
29 | 600 | CCCCC/C(=C\C1CC=CCC1)C(C)=O (stereo not shown) [Compound ID 17, (E)-3-(cyclohex-3-enylmethylene)octan-2-one]
30 | 500 | CCCCC/C(=C\C1CCCC1)C(C)=O [Compound ID 18, (E)-3-(cyclopentylmethylene)octan-2-one]
31 | 500 | CCCCC/C(=C\c1ccccc1)C(=O)OC [Compound ID 47, (E)-methyl 2-benzylideneheptanoate]
32 | 500 | CCCCC/C(=C\c1cccc(OC)c1)C(C)=O [Compound ID 35, (E)-3-(3-methoxybenzylidene)octan-2-one]
33 | 500 | CCCCC/C(=C\c1ccncc1)C(C)=O [Compound ID 45, (E)-3-(pyridin-4-ylmethylene)octan-2-one]
34 | 500 | CCCCC/C(=C\c1ccccc1)C(=O)CC [Compound ID 58, (E)-4-benzylidenenonan-3-one]
35 | 500 | CCCCC/C(=C\C1CCCCC1)C(C)=O [Compound ID 16, (E)-3-(cyclohexylmethylene)octan-2-one]
36 | 400 | CCCCC/C(=C\c1cccc(C)c1)C(C)=O [Compound ID 29, (E)-3-(3-methylbenzylidene)octan-2-one]
37 | 400 | CCCCC/C(=C\c1ccc(F)cc1)C(C)=O [Compound ID 22, (E)-3-(4-fluorobenzylidene)octan-2-one]
38 | 400 | CCCCC/C(=C\c1ccc(C)cc1)C(C)=O [Compound ID 30, (E)-3-(4-methylbenzylidene)octan-2-one]
39 | 400 | CCCCC/C(=C\c1ccccc1OC)C(C)=O [Compound ID 34, (E)-3-(2-methoxybenzylidene)octan-2-one]
40 | 400 | CCCCC/C(=C\c1ccc(OC)cc1)C(C)=O [Compound ID 36, (E)-3-(4-methoxybenzylidene)octan-2-one]
41 | 300 | CCCCC/C(=C\c1ccccc1F)C(C)=O [Compound ID 20, (E)-3-(2-fluorobenzylidene)octan-2-one]
42 | 300 | CCCCC/C(=C\C1CC1)C(=O)CC [Compound ID 57, (E)-4-(cyclopropylmethylene)nonan-3-one]
43 | 300 | CCCCC/C(=C\C(C)(C)C)C(C)=O [Compound ID 55, (E)-3-(2,2-dimethylpropylidene)octan-2-one]
44 | 300 | CCCCC/C(=C\C1CCC1)C(C)=O [Compound ID 19, (E)-3-(cyclobutylmethylene)octan-2-one]
45 | 300 | CCCCC/C(=C\c1cccc(F)c1)C(C)=O [Compound ID 21, (E)-3-(3-fluorobenzylidene)octan-2-one]
46 | 300 | CCCCC/C(=C\c1ccccc1C)C(C)=O [Compound ID 28, (E)-3-(2-methylbenzylidene)octan-2-one]
47 | 200 | CCCCC/C(=C\C(C)C)C(C)=O [Compound ID 56, (E)-3-(2-methylpropylidene)octan-2-one]
48 | 200 | CCCCC/C(=C\c1ccc(F)cc1F)C(C)=O [Compound ID 24, (E)-3-(2,4-difluorobenzylidene)octan-2-one]
49 | 200 | CCCCC/C(=C\c1c(F)cccc1F)C(C)=O [Compound ID 23, (E)-3-(2,6-difluorobenzylidene)octan-2-one]
50 | 200 | CCCCC/C(=C\c1ccccc1C(F)(F)F)C(C)=O [Compound ID 31, (E)-3-(2-(trifluoromethyl)benzylidene)octan-2-one]
51 | 100 | CCCCC/C(=C\c1ccccn1)C(C)=O [Compound ID 43, (E)-3-(pyridin-2-ylmethylene)octan-2-one]
52 | 100 | CCCCC/C(=C\c1cccnc1)C(C)=O [Compound ID 44, (E)-3-(pyridin-3-ylmethylene)octan-2-one]
